Data as given in patent US8741894B2, “Arylsulfonamide CCR3 antagonists” (Axikin Pharmaceuticals, Inc., priority 2010, dated 2014).

Experiments:
CCR3 receptor = target: T1, CCR3 receptor (UniProt P51677); assay: CCR3 Receptor Binding Assay ([125I]-labeled human eotaxin/CCL11 displacement on cells); conditions: 0.1 nM [125I]-labeled human eotaxin/CCL11, 60 min at room temperature
T1 sequence (P51677 1-355): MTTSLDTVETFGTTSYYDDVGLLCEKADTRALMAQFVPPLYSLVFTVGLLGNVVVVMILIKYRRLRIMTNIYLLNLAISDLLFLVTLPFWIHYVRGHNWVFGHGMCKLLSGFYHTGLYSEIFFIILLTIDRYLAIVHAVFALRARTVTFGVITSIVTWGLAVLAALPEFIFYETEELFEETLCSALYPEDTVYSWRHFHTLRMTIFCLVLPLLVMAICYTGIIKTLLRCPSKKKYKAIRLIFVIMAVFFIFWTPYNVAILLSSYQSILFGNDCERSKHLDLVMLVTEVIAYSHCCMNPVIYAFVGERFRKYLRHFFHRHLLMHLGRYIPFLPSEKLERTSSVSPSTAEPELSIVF
Method: Cells were washed once with PBS and resuspended in a binding buffer (25 mM HEPES pH 7.6, 5 mM MgCl2, 1 mM CaCl2, 0.5% BSA, 0.1% NaN3). […] of cell suspension (2×10^5 cells/well) and 0.1 nM [^125I]-labeled human eotaxin/CCL11 (2000 Ci/mmol specific activity) were mixed in a 96-well U-bottom polypropylene plate, and incubated for 60 min at room temperature for the binding reaction. The cell suspension was then transferred to a filtration plate (#MAFB, Millipore), and washed 3 times with the binding buffer containing 0.5 M NaCl, scintillant added, and the radioactivity was counted on a TopCount (Packard). For the determination of non-specific binding, the cell suspension and [^125I]-labeled human eotaxin/CCL11 were incubated in the presence of 500 nM of unlabeled human eotaxin/CCL11. See, lino et al., “Molecular cloning and functional characterization of cynomolgus monkey (Macaca fascicularis) CC chemokine receptor, CCR3,” Cytokine 2002, 19, 276-286.
The biological results are summarized in Table 1, wherein A represents a value no greater than 50 nM, and B represents a value greater than 50 nM but no greater than 500 nM, C represents a value greater than 500 nM but no greater than 5 μM; and D represents a value greater than 5 μM.

hERG channel = target: T2, hERG channel (Homo sapiens, UniProt Q12809); assay: hERG Receptor Binding Assay (125I-BeKm-1, membranes from HEK-293 cells containing transfected hERG channels); conditions: 1 hr at room temperature; for Ki at 1 h: human, pH 7.2, probe 125I-BeKm-1 (0.1 nM final); for Ki: 125I-BeKm-1 0.1 nM final
T2 construct: purchased Perkin Elmer RBHERGM400UA; host or cells: HEK-293 cells transfected with hERG (membrane preparation)
Method: Medium throughput screening of compounds for interaction with the human Ether-a-go-go related gene (hERG) was performed by modification of equilibrium dissociation assays using 125I-labelled peptide BeKm-1. BeKm-1, a scorpion toxin from the Central Asian scorpion Buthus eupeus, selectively blocks the hERG channel. Angelo, K., et al., 2003, Pflugers Arch.-Eur. J. Physiol., 447: 55-63; Chiu, P J S, et al., J. Pharmacol. Sci., 2004, 95: 311-319. Isolated membrane preparations from HEK-293 cells containing transfected hERG channels (hERG K+ Channel Membrane Target Systems™; Cat #, RBHERGM400UA) (Perkin Elmer, Boston, Mass.) were suspended in assay buffer A at a final concentration of 1:150 v/v. Compounds for screening, and non-radiolabelled BeKm-1, as well as 125I-BeKm-1 radioligand (Perkin Elmer; Cat #, NEX-412; Specific Activity 2,200 Ci/mmol), were also reconstituted in Buffer A. Assay components were incubated in 96-well, round-bottom polypropylene plates in the following ratio:
25 μl compound at appropriate concentrations
25 μl radiolabelled BeKm-1 at 0.8 nM (final concentration of 0.1 nM)
150 μl membrane preparation
The assay was incubated with shaking for 1 hr at room temperature. Subsequently, the well contents were transferred to 96-well filtration plates (GF/C multiwell plates (MultiScreen™ HTS; Millipore, 290 Concord Road, Billerica, Mass. 01821 USA; Cat# MSFBN6B-XX pre-soaked in 0.3% polyethyleneimine; Acros Organics, NJ; Cat#178571000). Unbound radioactivity was removed and the membranes washed 4 times with ice-cold Buffer B, under vacuum. Plates were air-dried and bound radioactivity counted on a Packard Top-Count NXT™ microplate scintillation and luminescence counter (Packard Instrument Co., Downers Grove, Ill.). Equilibrium dissociation was analyzed and IC50 and/or Ki values were calculated using GraphPad Prism 4™ software (GraphPad Software, San Diego, Calif.).
Assay Buffer A: ([…] (MP Biomedicals, LLC; 29525 Fountain Parkway, Solon Ohio, 441389; Cat #1688449) in water, pH 7.2 with 1M Tris (Fisher Chemicals, Fair Lawn, N.J. 07410; Cat #, BP-1757-500); 100 μM KCl (Fisher Chemicals, Cat #, BP-366-500); 0.1% BSA (Sigma Aldrich, 3050 Spruce Street, St. Louis, Mo. 63103; Cat #, A3059). Assay Buffer B: 20 mM Tris HCl, pH 7.3; 150 mM NaCl (Fisher Chemicals; Cat #, S78449).
The hERG binding assay results are summarized in Table 2, wherein A represents no measured activity (i.e., a value greater than 100 μM), and B represents a value greater than 10 μM but less than 100 μM and C represents a value less than 10 μM.

T2 sequence (Q12809 whole entry): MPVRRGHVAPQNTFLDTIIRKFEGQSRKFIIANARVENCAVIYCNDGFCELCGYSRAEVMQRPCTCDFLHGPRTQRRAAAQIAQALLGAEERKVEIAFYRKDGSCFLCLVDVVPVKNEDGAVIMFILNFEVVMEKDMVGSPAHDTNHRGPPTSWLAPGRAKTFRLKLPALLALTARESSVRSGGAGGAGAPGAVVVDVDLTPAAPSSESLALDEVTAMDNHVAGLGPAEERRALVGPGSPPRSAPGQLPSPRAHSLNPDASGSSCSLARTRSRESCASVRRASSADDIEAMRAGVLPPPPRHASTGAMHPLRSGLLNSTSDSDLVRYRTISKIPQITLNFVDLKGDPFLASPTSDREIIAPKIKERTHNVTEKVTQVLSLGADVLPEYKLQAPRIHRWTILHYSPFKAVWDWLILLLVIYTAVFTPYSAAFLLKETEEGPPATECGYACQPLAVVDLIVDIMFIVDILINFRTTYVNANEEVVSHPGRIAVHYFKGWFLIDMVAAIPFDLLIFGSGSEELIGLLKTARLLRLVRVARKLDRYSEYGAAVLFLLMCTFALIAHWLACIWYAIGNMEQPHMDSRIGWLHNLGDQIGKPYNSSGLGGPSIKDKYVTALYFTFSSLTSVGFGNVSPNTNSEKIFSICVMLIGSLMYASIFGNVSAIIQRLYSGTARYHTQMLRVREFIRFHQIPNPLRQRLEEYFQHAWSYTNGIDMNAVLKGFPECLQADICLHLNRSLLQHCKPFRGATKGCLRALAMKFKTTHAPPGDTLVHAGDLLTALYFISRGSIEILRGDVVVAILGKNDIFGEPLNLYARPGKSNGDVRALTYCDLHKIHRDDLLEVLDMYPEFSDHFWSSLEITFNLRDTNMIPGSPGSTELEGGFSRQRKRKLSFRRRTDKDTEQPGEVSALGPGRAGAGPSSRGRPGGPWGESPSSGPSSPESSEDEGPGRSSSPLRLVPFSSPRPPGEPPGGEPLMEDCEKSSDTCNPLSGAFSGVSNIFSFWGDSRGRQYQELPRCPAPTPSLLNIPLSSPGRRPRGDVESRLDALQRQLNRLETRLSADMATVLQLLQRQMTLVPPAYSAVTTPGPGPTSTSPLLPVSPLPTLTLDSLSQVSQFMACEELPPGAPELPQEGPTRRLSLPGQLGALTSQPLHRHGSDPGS

Structure (SMILES) | Ki (CCR3 receptor) [nM] | Ki at 1 h (hERG channel) [µM] | Ki (hERG channel) [µM]
Cc1ccc(S(=O)(=O)N2CCC(NS(=O)(=O)c3cc(C#N)ccc3Oc3cc(Cl)cc(Cl)c3)CC2)cc1 [Compound 30, 5-cyano-2-(3,5-dichlorophenoxy)-N-(1-tosylpiperidin-4-yl)benzenesulfonamide] | 50 to 500 |  | > 100
CS(=O)(=O)N1CCC(NS(=O)(=O)c2cc(C#N)ccc2Oc2cc(Cl)cc(Cl)c2)CC1 [Compound 33] | 50 to 500 | > 100 | 
CC(C)NC(=S)N1CCC(NS(=O)(=O)c2cc(C#N)ccc2Oc2cc(Cl)cc(Cl)c2)CC1 [Compound 36] | 50 to 500 | 10 to 100 | 

Second part, led by results:

Ki (CCR3 receptor) [nM] | Structure (SMILES) | Ki at 1 h (hERG channel) [µM] | Ki (hERG channel) [µM]
> 5000 | CC(C)(C)OC(=O)N1CCC(NS(=O)(=O)c2cc(C#N)ccc2Oc2cc(Cl)cc(Cl)c2)CC1 [Compound 2] | > 100 | 
50 to 500 | N#Cc1ccc(Oc2cc(Cl)cc(Cl)c2)c(S(=O)(=O)N2CCC(NS(=O)(=O)c3cccc(F)c3)CC2)c1 [Compound 25, N-(1-(5-cyano-2-(3,5-dichlorophenoxy)phenylsulfonyl)piperidin-4-yl)-3-fluorobenzenesulfonamide] |  | > 100
50 to 500 | CC(=O)N1CCC(NS(=O)(=O)c2cc(C#N)ccc2Oc2cc(Cl)cc(Cl)c2)CC1 [Compound 38] | > 100 | 
500 to 5000 | N#Cc1ccc(Oc2cc(Cl)cc(Cl)c2)c(S(=O)(=O)N2CCC(NC(=O)Nc3cccc(F)c3)CC2)c1 [Compound 52] | > 100 | 
